Patent publication US10294226B2, “Small molecule inhibitors of the JAK family of kinases” (Janssen Pharmaceutica NV, priority 2016, dated 2019)

Tests used:
IL-2 pSTAT5 (JAK1/JAK3) = IL-2 pSTAT5 (JAK1/JAK3) cellular assay, AlphaLISA in PBMCs; assay type: cell-based; details: PBMC, IL-2 5 ng/mL
Procedure: The AlphaLISA assay (based on Alpha Technology from PerkinElmer) was performed by first plating freshly thawed PBMCs (Biological Specialty Corporation) in 384-well plates at 30,000 cells per 4 μL per well in HBSS (Hanks' Balanced Salt Solution) containing 0.1% IgG (immunoglobulin G)-free, protease-free BSA (bovine serum albumin) (Jackson ImmunoResearch Cat. No. 001-000-161). The cells were then treated with 2 μL/well of compounds diluted in DMSO at half-log titrated concentrations, with a highest test concentration of 10 μM and 0.5% final DMSO concentration, for thirty minutes at 37° C. […] The cellular reactions were terminated by the addition of 2 μL/well of lysis buffer (PerkinElmer Cat. No. ALSU-PST5-A10K) followed by an incubation of five minutes at room temperature. 5 μL/well of acceptor mix (PerkinElmer Cat. No. ALSU-PST5-A10K) was added to the cells and incubated in the dark for one hour at room temperature. Then, 5 μL/well of donor mix (PerkinElmer Cat. No. ALSU-PST5-A10K) was added to the cells and incubated in the dark overnight at room temperature. Finally, the plates were read on a PerkinElmer EnVision for detection of the time-resolved fluorescence signal. The percentage of IL-2-dependent pSTAT5 inhibition was determined at the compound test concentrations; and for each compound, a dose curve was generated and the IC50 was calculated. Compound IC50 was calculated by nonlinear regression, sigmoidal dose response analysis of the half-log dilution titration curve of the compound concentration vs. Alpha signal. The acronym “Alpha” stands for amplified luminescent proximity homogeneous assay; the Alpha signal is a luminescent/fluorescent signal.

IFNα pSTAT4 (JAK1/TYK2) = IFNα pSTAT4 (JAK1/TYK2) cellular assay, AlphaLISA in PBMCs; assay type: cell-based; details: PBMC, IFNα 4 ng/mL
Procedure: The AlphaLISA assay (based on Alpha Technology from PerkinElmer) was performed by first plating freshly thawed PBMCs (Biological Specialty Corporation) in 384-well plates at 100,000 cells per 6 μL per well in DMEM (Dulbecco's Modified Eagle Medium) containing 10% FBS (fetal bovine serum) and 1,000 I.U./mL penicillin and 1,000 μg/mL streptomycin. The cells were then treated with 2 μL/well of compounds diluted in DMSO at half-log titrated concentrations, with a highest test concentration of 10 μM and 0.5% final DMSO concentration, for thirty minutes at 37° C. Next, the cells were stimulated with 2 μL/well of IFNα (PBL Assay Science Cat. No. 11101-2) at 4 ng/mL for thirty minutes at 37° C. The cellular reactions were terminated by the addition of 2 μL/well of lysis buffer (PerkinElmer Cat. No. ALSU-PST4-A10K) followed by an incubation of five minutes at room temperature. 4 μL/well of acceptor mix (PerkinElmer Cat. No. ALSU-PST4-A10K) was added to the cells and incubated in the dark for one hour at room temperature. Then, 4 μL/well of donor mix (PerkinElmer Cat. No. ALSU-PST4-A10K) was added to the cells and incubated in the dark overnight at room temperature. Finally, the plates were read on a PerkinElmer EnVision for detection of the time-resolved fluorescence signal. The percentage of IFNα-dependent pSTAT4 inhibition was determined at the compound test concentrations; and for each compound, a dose curve was generated and the IC50 was calculated. Compound IC50 was calculated by nonlinear regression, sigmoidal dose response analysis of the half-log dilution titration curve of the compound concentration vs. Alpha signal. The term “Alpha” is defined in the immediately preceding cellular assay description.

P-gp (MDR1) = experiment: MDCK-MDR1 permeability assay; assay type: in vitro ADME; details: dog, MDCK-MDR1, pH 7.4, with elacridar 2 μM, @ 5 μM, apical to basolateral, with P-gp inhibitor elacridar (2 μM); read-out: MDCK-MDR1 P^eapp(A-B)
Procedure: Permeability measurements were conducted according to the Cyprotex protocol using the MDCK-MDR1 cell line obtained from the NIH (Rockville, Md., USA). […] The cells in this assay form a cohesive sheet of a single cell layer filing the surface area of the culture dish, also known as a confluent monolayer, and on day four the test compound was added to the apical side of the membrane and the transport of the compound across the monolayer was monitored over a time period of 60 min.
Test compounds were dissolved in DMSO at a concentration of 10 mM. The dosing solutions were prepared by diluting test compound with assay buffer (Hanks Balanced Salt Solution), pH 7.4, at a final concentration of 5 μM. For assessment of apical to basolateral (“A-B”) permeability, buffer was removed from the apical compartment and replaced with test compound dosing solution with or without the permeability glycoprotein (“PgP”, “P-gP”, “Pgp” or “P-gp”) inhibitor elacridar (2 μM). For assessment of basolateral to apical (“B-A”) permeability, buffer was removed from the companion plate and replaced with test compound dosing solution. Incubations were carried out in duplicate at 37° C. in an atmosphere of 5% CO2 with a relative humidity of 95%. […] After incubation for 60 minutes, apical and basolateral samples were diluted and test compounds quantified by LC/MS/MS using an 8-point calibration in the range 0.0039 to 3 μM with appropriate dilution of the samples (receiver dilution factor=1; donor and C0 dilution factor=10). The permeability coefficient (Papp) for each compound was calculated from the following equation: Papp=(dQ/dt)/(C0×S), where dQ/dt is the rate of permeation of the drug across the cells, C0 is the donor compartment concentration at time zero, and S is the area of the cell monolayer.
The percent recovery was measured for all incubation conditions.
Papp(A-B) gives an indication of permeation extent across the cells in this assay, which is envisaged to model the transcellular transport across Pgp-expressing cells, such as Pgp-expressing gastrointestinal tract cells.
The integrity of each monolayer was monitored by examining the permeation of lucifer yellow by fluorimetric analysis.

[1] = test system: GM-CSF pSTAT5 (JAK2/JAK2); experiment: GM-CSF pSTAT5 (JAK2/JAK2) cellular assay, AlphaLISA in PBMCs; assay type: cell-based; details: PBMC, GM-CSF 11 pg/mL
Procedure: The AlphaLISA assay (based on Alpha Technology from PerkinElmer) was performed by first plating freshly thawed PBMCs (Biological Specialty Corporation) in 384-well plates at 30,000 cells per 4 μL per well in HBSS containing 0.1% IgG-free, protease-free BSA (Jackson ImmunoResearch Cat. No. 001-000-161). The cells were then treated with 2 μL/well of compounds diluted in DMSO at half-log titrated concentrations, with a highest test concentration of 10 μM and 0.5% final DMSO concentration, for thirty minutes at 37° C. Next, the cells were stimulated with 2 μL/well of GM-CSF (R&D Systems Cat. No. 215-GM-050) at 11 pg/mL for fifteen minutes at 37° C. The cellular reactions were terminated by the addition of 2 μL/well of lysis buffer (PerkinElmer Cat. No. ALSU-PST5-A10K) followed by an incubation of five minutes at room temperature. 5 μL/well of acceptor mix (PerkinElmer Cat. No. ALSU-PST5-A10K) was added to the cells and incubated in the dark for one hour at room temperature. Then, 5 μL/well of donor mix (PerkinElmer Cat. No. ALSU-PST5-A10K) was added to the cells and incubated in the dark overnight at room temperature. Finally, the plates were read on a PerkinElmer EnVision for detection of the time-resolved fluorescence signal. The percentage of GM-CSF-dependent pSTAT5 inhibition was determined at the compound test concentrations; and for each compound, a dose curve was generated and the IC50 was calculated. Compound IC50 was calculated by nonlinear regression, sigmoidal dose response analysis of the half-log dilution titration curve of the compound concentration vs. Alpha signal. The term “Alpha” is defined in the IL-2 pSTAT5 (JAK1/JAK3) cellular assay description.

[2] = pH 6.5

Compound | IC50 (IL-2 pSTAT5 (JAK1/JAK3)) [nM] | IC50 (IFNα pSTAT4 (JAK1/TYK2)) [nM] | Papp A→B at 60 min, 5 μM (P-gp (MDR1)) [×10⁻⁶ cm/s] | IC50 [1] [nM] | SIF solubility [2] [µM]
CC(C)(O)CNC(=O)Cc1nc2cnc3[nH]ccc3c2n1[C@H]1CC[C@H](CC#N)CC1 [Ex. 1, 2-(1-((1r,4r)-4-(Cyanomethyl)cyclohexyl)-1,6-dihydroimidazo[4,5-d]pyrrolo[2,3-b]pyridin-2-yl)-N-(2-hydroxy-2-methylpropyl)acetamide] | 21.6 | 59.5 | 1.1 | 83.9 | 
N#CC[C@H]1CC[C@H](n2c(-c3c[nH]cn3)nc3cnc4[nH]ccc4c32)CC1 [Ex. 2, 2-((1r,4r)-4-(2-(1H-Imidazol-4-yl)imidazo[4,5-d]pyrrolo[2,3-b]pyridin-1(6H)-yl)cyclohexyl)acetonitrile] | 9 | 20.8 | 1.6 | 61 | >400
N#CC[C@H]1CC[C@H](n2c(CC(=O)NCC3CC3)nc3cnc4[nH]ccc4c32)CC1 [Ex. 3, 2-(1-((1r,4r)-4-(Cyanomethyl)cyclohexyl)-1,6-dihydroimidazo[4,5-d]pyrrolo[2,3-b]pyridin-2-yl)-N-(cyclopropylmethyl)acetamide] | 6.4 | 10.1 | 2.3 | 21.9 | >400
N#CCCNC(=O)Cc1nc2cnc3[nH]ccc3c2n1[C@H]1CC[C@H](CC#N)CC1 [Ex. 4, N-(2-Cyanoethyl)-2-(1-((1r,4r)-4-(cyanomethyl)cyclohexyl)-1,6-dihydroimidazo[4,5-d]pyrrolo[2,3-b]pyridin-2-yl)acetamide] | 35.5 | 64.7 | 0.5 | 119 | >400
N#CC[C@H]1CC[C@H](n2c(CC(=O)NC3CCOCC3)nc3cnc4[nH]ccc4c32)CC1 [Ex. 5, 2-(1-((1r,4r)-4-(Cyanomethyl)cyclohexyl)-1,6-dihydroimidazo[4,5-d]pyrrolo[2,3-b]pyridin-2-yl)-N-(tetrahydro-2H-pyran-4-yl)acetamide] | 6.4 | 38.1 | 0.7 | 28.9 | 
N#CC[C@H]1CC[C@H](n2c(CC(=O)NCC3CCOCC3)nc3cnc4[nH]ccc4c32)CC1 [Ex. 6, 2-(1-((1r,4r)-4-(Cyanomethyl)cyclohexyl)-1,6-dihydroimidazo[4,5-d]pyrrolo[2,3-b]pyridin-2-yl)-N-((tetrahydro-2H-pyran-4-yl)methyl)acetamide] | 6.7 | 39.4 | 0.9 | 25.1 | >400
CC(C)(C#N)CNC(=O)Cc1nc2cnc3[nH]ccc3c2n1[C@H]1CC[C@H](CC#N)CC1 [Ex. 7, N-(2-Cyano-2-methylpropyl)-2-(1-((1r,4r)-4-(cyanomethyl)cyclohexyl)-1,6-dihydroimidazo[4,5-d]pyrrolo[2,3-b]pyridin-2-yl)acetamide] | 9.7 | 38.5 | 1.2 | 67.3 | 
N#CC[C@H]1CC[C@H](n2c(CC(=O)NCC3(O)CCC3)nc3cnc4[nH]ccc4c32)CC1 [Ex. 8, 2-(1-((1r,4r)-4-(Cyanomethyl)cyclohexyl)-1,6-dihydroimidazo[4,5-d]pyrrolo[2,3-b]pyridin-2-yl)-N-((1-hydroxycyclobutyl)methyl)acetamide] | 20.6 | 42.8 | 0.5 | 33.8 | >400
N#CCC12CCC(NC(=O)Cc3nc4cnc5[nH]ccc5c4n3[C@H]3CC[C@H](CC#N)CC3)(CC1)C2 [Ex. 10, N-(4-(Cyanomethyl)bicyclo[2.2.1]heptan-1-yl)-2-(1-((1r, 4r)-4-(cyanomethyl)cyclohexyl)-1,6-dihydroimidazo[4,5-d]pyrrolo[2,3-b]pyridin-2-yl)acetamide] | 16.8 | 40.4 | 1.1 | 44.6 | 
N#CC[C@H]1CC[C@H](n2c(CC(=O)NCC3(O)CC3)nc3cnc4[nH]ccc4c32)CC1 [Ex. 12, 2-(1-((1r,4r)-4-(Cyanomethyl)cyclohexyl)-1,6-dihydroimidazo[4,5-d]pyrrolo[2,3-b]pyridin-2-yl)-N-((1-hydroxycyclopropyl)methyl)acetamide] | 13.9 | 81.4 | 0.6 | 75.4 | >400
